According to patent US20210002650A1, “COMPOSITIONS AND METHODS FOR TREATING ALZHEIMER'S DISEASE” (University of Virginia Patent Foundation, priority 2019, published 2021):
Counter-ions that a name gives are not always drawn.

Experiments:
[1] = system: primary mouse cortical neurons; assay: AβO-induced neuronal cell cycle re-entry (CCR), cyclin D1/NeuN/MAP2 triple immunofluorescence; assay type: cell-based; set-up: induction of CCR in primary neuron cultures: dose or concentration left out as unconfirmed
Protocol: Cortical neuron cultures derived from E17/18 wild type C57/BL6 mouse embryos prepared and maintained as described previously. Cultures were maintained for 16-18 days prior to experimental manipulations.
20 μl aliquots were stored at −80° C. until ready to use. To prepare oligomers, an aliquot was dried in a speed vac for 3 hours, solubilized in 1 mM in dimethyl sulfoxide (Sigma, D2650-5X5ML), placed in a water bath sonicator for 5 minutes, and then supplemented with Neurobasal medium (GIBCO/Life Technologies, 21103-049) to yield a final peptide concentration of 100 μM. The solution was then placed on an orbiting rocker at 4° C. for 48 hours, after which it was centrifuged at 14,000×g in a tabletop microcentrifuge for 15 minutes to pellet large aggregates.
All steps were performed at room temperature unless indicated otherwise. Primary mouse cortical neurons grown on #1.5 thickness, 12 mm round glass coverslips were rinsed once with ice-cold phosphate buffered saline (PBS), and then were fixed in 4% paraformaldehyde in PBS for 12 minutes. Following fixation, the cells were rinsed 3 times for 5 minutes each with ice cold PBS, permeabilized for 15 minutes with PBS containing 0.2% Triton X-100 (Fisher, 9002-93-1), and rinsed 3 times for 5 minutes each with PBS. Next, the cells were blocked with PBST (PBS supplemented with 2% bovine serum albumin (BSA; Roche, 03116956001); and 0.1% Tween 20 (Fisher, 9005-64-5) for 1 hour, after which they were labeled overnight with primary antibodies followed by secondary antibodies for 1 hour. Antibodies were diluted into 2% BSA in PBS, and after each antibody incubation step the cells were rinsed 3 times for 5 minutes each with PBS. Finally, the coverslips were rinsed with ultrapure water and mounted onto slides using Fluormount-G (Southern Biotech, 0100-01) containing 1% 1,4-diazabicyclo[2.2.2]octane (Sigma, D27802-25MG), an anti-quenching agent.
(§1) Cultured neurons and brain sections were imaged on either of two microscopes: 1) Nikon Eclipse Ti equipped with a Yokogawa CSU-X1 spinning disk head, 20×0.75 NA CFI Plan Apo, 40×1.3 NA CFI S Fluor and 60×1.4 NA Plan Apo objectives; 405 nm, 488 nm, 561 nm and 640 nm lasers; and a Hamamatsu Flash 4.0 scientific CMOS camera; or 2) EVOS FL imaging system (Invitrogen). Micrographs were captured using either Nikon Elements or EVOS software. CCR-positive cells were counted using the ImageJ cell counter plugin for brain sections (available at an NIH website), and were counted manually using the EVOS microscope for primary neuron cultures. For cultured neurons (FIGS. 1-4, S5 and S2), 4 biological replicates of >300 neurons were counted per condition per experiment.
To test the hypothesis that neuronal CCR is calcium-dependent we first treated primary mouse cortical neurons with BAPTA-AM, a cell-permeant chelator of intracellular calcium, beginning 30 minutes prior to addition of AβOs to the cultures.
Accordingly, primary neuron cultures were treated with MK-801, an NMDAR inhibitor that blocks calcium entry through the channel pore, beginning 30 minutes before AβOs were added. […] Otherwise identical experiments were performed using 6-cyano-7-nitroquinoxaline-2,3-dione (CNQX) to block plasma membrane AMPA receptors (FIG. 7), 2-aminoethoxydiphenyl borate (2-ABP) to block ER-associated IP3 receptors and TRP channels (FIG. 8), or dantrolene to inhibit ER-associated ryanodine receptors (FIG. 8).

CaMKII = assay: phospho-activated versus total CaMKII by western blotting of AβO-treated cortical neurons; assay type: cell-based, mouse; conditions: 10 μM MK-801, 30 minute pre-treatment; 15 minutes after AβO addition
Protocol: Samples were resolved on 12% SDS polyacrylamide gels, then transferred at 100 V for 1.75 hours onto 0.22 μm pore size nitrocellulose membranes using a Bio-Rad Mini-PROTEAN Tetra Electrophoresis Cell. Following transfer, blots were rinsed once in tris-buffered saline (TBS), blocked for 30-60 minutes in blocking buffer (LI-COR, 927-50000), sequentially incubated in primary antibodies overnight at 4° C. in antibody buffer (1:1 mix of blocking buffer, and TBST: TBS+0.1% Tween-20), then LI-COR infrared-labeled secondary antibodies for 30 minutes. Blots were rinsed 3 times for 5 minutes each using TBST after the primary antibody or TBS after the secondary antibody. Finally, membranes were scanned using a LI-COR Odyssey imaging station.
CaMKII is of particular interest, as it can be activated via calcium influx through NMDAR. We thus tested the hypothesis that AβO-mediated calcium influx through NMDAR activates CaMKII as a mediator of CCR. Again, we treated primary neurons with AβOs with or without a 30 minute MK-801 pre-treatment, and collected the cells at various time points from 0-2 hours after AβO stimulation for western blotting with antibodies to phospho-activated and total CaMKII. […] The AβO-mediated activation of CaMKII necessary for CCR [19] is therefore dependent upon calcium influx through NMDAR.

Tg2576 AD model mice = assay: neuronal CCR in vivo, cyclin D1-positive cortical neurons in brain sections after memantine in drinking water; set-up: species or system mouse; conditions: memantine ~30 mg/kg/day in drinking water from 3 weeks until 2 months of age
Protocol: Brain tissue sections were obtained from mice that were transcardially perfused first with 10 ml of phosphate buffer (PB; 0.1 M sodium phosphate, pH 7.6), followed by 10 ml of 4% paraformaldehyde in PB at a flow rate of 1.5 ml/minute. Next, brains were removed and placed in 4% paraformaldehyde in PB for 24 hours, washed 3 times in PBS, incubated in 30% sucrose overnight, and flash frozen using dry ice. Frozen tissue was stored at −80° C. until ready for sectioning to 40 μm thickness on a Microm HM 505 E cryostat. […]
as §1, with “Micrographs were captured using either Nikon Elements or EVOS software.” left out, “experiment. […]” for “experiment.”

[2] = cited from earlier work
[3] = 10 μM, 30 minute pre-treatment, 16-18 hours AβOs

Question: For `NCCOB(c1ccccc1)c1ccccc1` [2-ABP, 2-aminoethoxydiphenyl borate], which “AβO-induced neuronal CCR (cyclin D1-positive neurons)” value (“AβO-induced neuronal CCR” below) ([1]; 50 μM 2-APB to block IP3 receptors, 18 hours AβOs) is on record?
Answer: The value was “none of those inhibitors blocked CCR”.

Question: With `CC(=O)OCOC(=O)CN(CC(=O)OCOC(C)=O)c1ccccc1OCCOc1ccccc1N(CC(=O)OCOC(C)=O)CC(=O)OCOC(C)=O` [BAPTA-AM, 1,2-Bis(2-aminophenoxy)ethane-N,N,N′,N′-tetraacetic acid tetrakis(acetoxymethyl ester)] as the compound, how does the “AβO-induced neuronal CCR” value [1, 3] read?
Answer: The value was “prevented”.

Question: Which “AβO-induced neuronal CCR” value [1, 3] does the source give for `N#Cc1cc2c(cc1[N+](=O)[O-])=NC(=O)C(=O)N=2` [CNQX, 6-cyano-7-nitroquinoxaline-2,3-dione] here?
Answer: Its value is “none of those inhibitors blocked CCR”.

Question: For `C[C@]12N[C@H](Cc3ccccc31)c1ccccc12` [MK-801, (1S,9R)-1-methyl-16-azatetracyclo[7.6.1.02,7.010,15]hexadeca-2,4,6,10,12,14-hexaene], which “AβO-mediated transient activation of CaMKII (phosphorylated relative to total CaMKII)” value (CaMKII) is on record?
Answer: Its value is “activation was prevented”.

Question: What about the “AβO-induced neuronal CCR” value [1, 3] of the same compound?
Answer: The value was “blocked the induction of CCR”.

Question: With `CN[C@H](CC(=O)O)C(=O)O` [NMDA] as the compound, how does the “induction of CCR in primary neuron cultures” value ([1]; 30 second shock of NMDA, no AβOs) read?
Answer: The value was “induces CCR”.

Question: With `O=C1CN(/N=C/c2ccc(-c3ccc([N+](=O)[O-])cc3)o2)C(O)=N1` [dantrolene] as the compound, how does the “AβO-induced neuronal CCR” value ([1]; 20 μM dantrolene to block ryanodine receptors, 18 hours AβOs) read?
Answer: Its value is “none of those inhibitors blocked CCR”.

Question: Which “neuronal CCR along cortical regions (cyclin D1 immunoreactivity)” value (Tg2576 AD model mice; Tg2576 mice (untreated 8.8%)) does the source give for `CC12CC3CC(C)(C1)CC(N)(C3)C2` [memantine, 1-amino-3,5-dimethyladamantane hydrochloride] here?
Answer: The value was “reduced to WT levels”.

Question: And the “neuronal CCR along cortical regions (cyclin D1 immunoreactivity)” value (Tg2576 AD model mice; WT mice)?
Answer: The value was 1.6%.

Question: And the solubility in water [2]?
Answer: Its solubility in water is “soluble in water”.

Question: What about the “AβO-induced neuronal CCR” value [1, 3] of the same compound?
Answer: The value was “prevented AβOs from inducing neuronal CCR”.
